Laboratory results from paper PMC6792352, “Limited Chemical Structural Diversity Found to Modulate Thyroid Hormone Receptor in the Tox21 Chemical Library” (Environmental Health Perspectives, 2019).
Structures can show the parent of a compound that is named as a salt. Where two headings read alike, the source gives them in different places.

System: GH3-TRE-Luc cell line
Conditions: read-out: AC50 (uM) modified / 1000, viability, 1 nM T3 present, 24 h

CN(C)c1ccc2nc3ccc(=[N+](C)C)cc-3sc2c1 [Methylene blue]
CC50 (Tox21_110001=Tox21_112497): 21.1 µM
CC50 (Tox21_110001=Tox21_302087): 45.4 µM

CC/C(=C(\c1ccc(O)cc1)c1ccc(OCCN(C)C)cc1)c1ccccc1 [4-Hydroxytamoxifen]
CC50 (Tox21_110001=Tox21_303657): 2.62 µM

CSc1ccc2c(c1)N(CCC1CCCCN1C)c1ccccc1S2 (stereo not drawn) [Thioridazine]
CC50 (Tox21_110001=Tox21_110294): 6.53 µM

[H]/N=C(\N/C(=N/[H])NCCCCCCNC(=N)NC(=N)Nc1ccc(Cl)cc1)Nc1ccc(Cl)cc1 [Chlorhexidine]
CC50 (Tox21_110001=Tox21_110325): 12.4 µM
CC50 (Tox21_110001=Tox21_201404): 7.06 µM
CC50 (Tox21_110001=Tox21_303445): 6.48 µM

CN(Cc1ccc(C(C)(C)C)cc1)Cc1cccc2ccccc12 [Butenafine hydrochloride]
CC50 (Tox21_110001=Tox21_112918): 28.6 µM

CC/N=c1\cc2oc3cc(NCC)c(C)cc3c(-c3ccccc3C(=O)OCC)c-2cc1C [Rhodamine 6G]
CC50 (Tox21_110001=Tox21_201597): 0.49 µM
CC50 (Tox21_110001=Tox21_302898): 1.44 µM

CCCCCCCCCCn1cc[n+](C)c1 [1-Decyl-3-methylimidazolium tetrafluoroborate]
CC50 (Tox21_110001=Tox21_200592): 13.1 µM

CC(=O)O[C@@]12CO[C@@H]1C[C@H](O)[C@@]1(C)C(=O)[C@H](O)C3=C(C)[C@@H](OC(=O)[C@H](O)[C@@H](NC(=O)OC(C)(C)C)c4ccccc4)C[C@@](O)([C@@H](OC(=O)c4ccccc4)[C@H]21)C3(C)C [Docetaxel]
CC50 (Tox21_110001=Tox21_112781): 0.0619 µM
CC50 (Tox21_110001=Tox21_113088): 0.364 µM

O=C(O)CCCC(=O)O [Glutaric acid]
CC50 (Tox21_110001=Tox21_302871): 35.4 µM

C=C1C(CCl)(CCl)C2(Cl)C(Cl)C(Cl)C1(Cl)C2(Cl)Cl (stereo not drawn) [Toxaphene]
CC50 (Tox21_110001=Tox21_111173): 5.43 µM
CC50 (Tox21_110001=Tox21_200912): 23.5 µM

COc1ccc(C(Cl)=C(c2ccc(OC)cc2)c2ccc(OC)cc2)cc1 [Chlorotrianisene]
CC50 (Tox21_110001=Tox21_202361): 13.6 µM

CCCCCCCCCC[N+](C)(C)CCCCCCCCCC [Didecyldimethylammonium bromide]
CC50 (Tox21_110001=Tox21_112302): 6.15 µM

O=C(CCl)c1ccc(Cl)cc1Cl [2,2',4'-Trichloroacetophenone]
CC50 (Tox21_110001=Tox21_113246): 2.14 µM
CC50 (Tox21_110001=Tox21_113461): 4.54 µM

N=C(N)c1ccc(OCCCCCOc2ccc(C(=N)N)cc2)cc1 [Pentamidine isethionate]
CC50 (Tox21_110001=Tox21_110742): 23.4 µM
CC50 (Tox21_110001=Tox21_201722): 63.5 µM
CC50 (Tox21_110001=Tox21_300312): 41 µM

O=c1[nH]cc(F)c(=O)[nH]1 [5-Fluorouracil]
CC50 (Tox21_110001=Tox21_202335): 16.7 µM
CC50 (Tox21_110001=Tox21_300112): 30.2 µM

Oc1ccc(O)cc1 [Hydroquinone]
CC50 (Tox21_110001=Tox21_110169): 16 µM
CC50 (Tox21_110001=Tox21_202345): 32.2 µM
CC50 (Tox21_110001=Tox21_300015): 21.9 µM

C[C@H](Cc1ccc(O)c(O)c1)[C@@H](C)Cc1ccc(O)c(O)c1 [Masoprocol]
CC50 (Tox21_110001=Tox21_110210): 9.04 µM

CC(CN1c2ccccc2Sc2ccccc21)N(C)C (stereo not drawn) [Promethazine]
CC50 (Tox21_110001=Tox21_110227): 17.9 µM

Oc1cccc2cccnc12 [8-Hydroxyquinoline sulfate]
CC50 (Tox21_110001=Tox21_303537): 1.43 µM

CCCCCCCCCCCCCC[P+](CCCCCC)(CCCCCC)CCCCCC [Trihexyltetradecylphosphonium bromide]
CC50 (Tox21_110001=Tox21_200809): 5.4 µM

CN(C)CCOc1ccccc1Cc1ccccc1 [Phentoloxamine PAS]
CC50 (Tox21_110001=Tox21_113232): 25.5 µM

Cc1c(N)nc([C@H](CC(N)=O)NC[C@H](N)C(N)=O)nc1C(=O)N[C@H](C(=O)N[C@H](C)[C@@H](O)[C@H](C)C(=O)N[C@H](C(=O)NCCc1nc(-c2nc(C(=O)NCCC[S+](C)C)cs2)cs1)[C@@H](C)O)[C@@H](O[C@@H]1O[C@@H](CO)[C@@H](O)[C@H](O)[C@@H]1O[C@H]1O[C@H](CO)[C@@H](O)[C@H](OC(N)=O)[C@@H]1O)c1c[nH]cn1 [Bleomycin sulfate]
CC50 (Tox21_110001=Tox21_113599): 1.85 µM

CC(=O)N1CCN(c2ccc(OC[C@@H]3CO[C@@](Cn4ccnc4)(c4ccc(Cl)cc4Cl)O3)cc2)CC1 (racemic) [Ketoconazole]
CC50 (Tox21_110001=Tox21_300267): 23.7 µM

NC(N)=O [Carbamide peroxide]
CC50 (Tox21_110001=Tox21_302451): 69 µM

Nc1nc(Cl)nc2c1ncn2[C@H]1C[C@H](O)[C@@H](CO)O1 [Cladribine]
CC50 (Tox21_110001=Tox21_110834): 0.386 µM
CC50 (Tox21_110001=Tox21_300596): 0.166 µM

C#C[C@]1(O)CC[C@H]2[C@@H]3CCC4=CC(=O)CC[C@@H]4[C@H]3CC[C@@]21CC (racemic) [dl-Norgestrel]
CC50 (Tox21_110001=Tox21_303623): 64.5 µM
